According to US11337984B2, “Methods for treating, diagnosing and prognosing a haematological malignancy” (Institut de Recerca Contra La Leucèmia Josep Carreras, priority 2014, dated 2022):

Key:
primary AML blasts = experiment: Cell viability of primary patient AML samples (bulk and CD34+CD38- primitive population); type: cell-based, human; conditions: 0.1, 1 and 10 μM, 24 and 72 h
Method: FIG. 3. […] The primitive AML population was identified within the AML bulk population based on their positivity to CD34 and negativity to CD38. […] Cell number was calculated by volumetric count. 11 primary AML samples were analyzed in triplicates. Each symbol represents a specific AML patient.
FIG. 4. […] The primitive AML population was identified within the AML bulk population based on their positivity to CD34 and negativity to CD38. […] Cell number was calculated by volumetric count. 11 primary AML samples were analyzed in triplicates. Each symbol represents a specific AML patient.
Primary AML patient samples were treated with subtype 1 and 2 HTR antagonists for 24 and 72 h at 0.1, 1 and 10 μM. Five hundred thousand cells per mL were seeded in IMDM supplemented with insulin, transferrin, bovine serum albumin, IL3 and non-essential aminoacids. Cell viability was measured by flow cytometry as described above.
Like the normal haematopoietic system, AML is thought to be organized as a hierarchy of distinct and functionally heterogeneous classes of cells that is ultimately sustained by a small number of leukaemic stem cells (LSCs) with enhanced self-renewal capacity, impaired differentiation ability, and increase drug resistance (Bonnet and Dick Nat Med. 1997; 3(7):730-7). The LSC population is found enriched inside the CD34+CD38− AML blast population.

MonoMac-1 cells = experiment: In vivo xenotransplantation mouse model (NSG mice injected with MonoMac-1 cells); conditions: IP every other day, day 7 to 14; apomorphine 5 mg/kg, methiothepin 0.1 mg/kg; versus vehicle
Method: FIG. 15. Treatment with 5HTR1 antagonists reduce AML burden in an in vivo xenotransplantation mouse model. 6-8 week-old NOD.Cg-Prkdc^scid Il2rg^tm1Wj1/SzJ (NSG) mice were myeloablated with busulfan (30 mg/kg IP) at day 0. At day 1, 10^6 MonoMac-1 cells were injected IV. From day 7 to day 14, mice were treated IP every other day with apomorphine (5 mg/kg) or methiothepin (0.1 mg/kg), while control mice were treated with saline vehicle (0.9% NaCl). At day 15, mice were sacrificed and their bones (iliac crests, femurs and tibias) were harvested and analyzed for the presence of human cells. Bone marrow samples were measured by flow cytometry. Frequency of human CD45 positive cells (upper panel) and total human CD45 positive cells (lower panel) in BM refer to control. Bars represent the mean value. Error bars represent SEM. **p<0.01; ***p<0.001.
Leukemia cells mainly reside in the bone marrow niche where the stroma cell compartment provides paracrine signaling that strongly mediates their survival and proliferation and protects them from apoptosis ( ). Accordingly, conditioned immunodeficient NOD.Cg-Prkdc^scid Il2rg^tm1Wj1/SzJ (NSG) mice (Sanchez et al Leukemia. 2009 November; 23(11):2109-17) were transplanted with human AML cells and left for 7 days for the leukemia to be established. […]

primary AML samples = experiment: Clonogenic capacity (CFU-B) of primary AML samples in methylcellulose; type: cell-based, human; conditions: 10 μM for 18 h, then 14 days in methylcellulose
Method: FIG. 10. The clonogenic capacity of primary AML samples is reduced upon 5HTR antagonist treatment. […] Cells were then cultivated in Methylcellulose supplemented with hematopoietic cytokines for 14 days. The number of CFU-B obtained was measured by microscopy based on morphological criteria. 7 primary AML blood samples were analyzed. Each symbol represents a specific patient sample. Lines represent the median. *p<0.05. CFU-B: Blast colony-forming units.
Taking into account that 5HTR antagonists reduced the cell viability of the most primitive AML population, the clonogenic capacity upon treatment was investigated. Primary patient AML samples were cultured in the presence of Apomorphine and Methiothepin for 18 h and plated in a semi-solid methylcellulose media for 14 days in the presence of instructive cytokines at a concentration of fifty thousand cells per mL. Colonies were counted by light microscopy based on morphology and cellularity.

[1] = tested on: HL-60, KG-1, MonoMac-1 and Kasumi-1 AML cell lines; experiment: Differentiation-associated surface markers on AML cell lines by flow cytometry; type: cell-based, human; conditions: 0.1, 1 and 10 μM, 72 h; all AML cell lines
Method: FIG. 5. […] The surface expression of CD11c, CD11b and CD14 was detected by flow cytometry. […] MFI: Mean Fluorescence Intensity.
HL-60, KG-1, MonoMac-1 and Kasumi-1 AML cell lines were treated with Apomorphine and Methiothepin at different concentrations for 72 h as described above. The expression of differentiation-associated surface markers was measured by flow cytometry.

[2] = tested on: healthy hematopoietic stem cells; experiment: Secondary transplants of engrafted healthy cells in NSG mice; type: in vivo, mouse
Method: FIG. 17. Treatments with 5HTR antagonists reduce the leukemia regeneration capacity of primary AML samples in secondary recipient, without affecting normal hematopoiesis. Upper panel. 3-10×10^5 engrafted bone marrow cells from primary transplanted mice were injected intravenously into secondary recipients (conditioned NSG mice) and left untreated for 8 weeks. Bone marrow cells were analyzed as in FIG. 16. Frequency of human CD45 positive cells referred to control is represented. Lower panel. 50×10^3 engrafted human cells were screened for CFUs. The normalized number of CFUs obtained is represented. *p<0.05; ***p<0.005; ****p<0.0001.
In order to assay the in vivo self-renewal capacity remaining in the engrafted samples, secondary transplants were performed. Less than 35% of AML cells were detected in mice injected with apomorphine- or methiothepin-treated cells (FIG. 17).

[3] = tested on: healthy haematopoietic stem/progenitor cells; experiment: Clonogenic capacity of lineage-depleted umbilical cord blood cells; type: cell-based, human; conditions: 10 μM for 18 h, then 14 days in methylcellulose
Method: FIG. 11. […] Cells were then cultivated in Methylcellulose supplemented with haematopoietic cytokines for 14 days. The number of colonies obtained was measured by microscopy based on morphological criteria. A. Total number of colonies is represented. CFU: colony-forming units. B. Frequency of each colony subtype is shown (CFU-Mix, Mix lineaged colony; CFU-GM, granulo-monocyte colony; CFU-G, granulocyte colony; CFU-M, monocyte colony; BFU-E erythrocyte blast colony). 4 primary umbilical cord blood samples were analyzed.
Next, lineage-depleted umbilical cord blood cells were treated with Apomorphine or Methiothepin as done above for AML cells. 14 days after plating, colonies were counted by light microscopy based on morphology and cellularity.

**Q.** For CN1CCc2cccc3c2[C@H]1Cc1ccc(O)c(O)c1-3 [Apomorphine, (6aR)-6-methyl-5,6,6a,7-tetrahydro-4H-dibenzo[de,g]quinoline-10,11-diol], which “cell death on primary AML blasts” value (primary AML blasts; bulk population) is on record?
**A.** induced cell death on primary AML blasts in a dose-response fashion

**Q.** And the “cell viability of the most primitive LSC-enriched blast population” value (primary AML blasts; CD34+CD38- population)?
**A.** reduced cell viability

**Q.** And the “AML burden in bone marrow” value (MonoMac-1 cells)?
**A.** significant reduction in AML burden

**Q.** And the “clonogenic capacity of primary AML samples (number of CFU-B)” value (primary AML samples)?
**A.** reduced the clonogenic capacity

**Q.** And the “expression of differentiation-associated surface markers CD11c, CD11b and CD14” value [1]?
**A.** induced the expression of CD11c, CD11b and CD14

**Q.** And the “self-renewal and differentiation capacity of healthy hematopoietic stem cells in secondary transplants” value [2]?
**A.** retained their self-renewal and differentiation capacity

**Q.** And the “clonogenic capacity of healthy haematopoietic stem/progenitor cells (total colonies, frequency of CFU subtypes)” value [3]?
**A.** None of the 5HTR antagonists affected the clonogenic capacity
